{
  "source": "patent US20040248919A1",
  "about": "“Fluorinated trienes and their use as rxr modulators” (priority 2001, published 2004)",
  "key": {"RARα": {"target": "T1, RARα (Homo sapiens, UniProt P10276)", "T1 sequence (P10276 1-462)": "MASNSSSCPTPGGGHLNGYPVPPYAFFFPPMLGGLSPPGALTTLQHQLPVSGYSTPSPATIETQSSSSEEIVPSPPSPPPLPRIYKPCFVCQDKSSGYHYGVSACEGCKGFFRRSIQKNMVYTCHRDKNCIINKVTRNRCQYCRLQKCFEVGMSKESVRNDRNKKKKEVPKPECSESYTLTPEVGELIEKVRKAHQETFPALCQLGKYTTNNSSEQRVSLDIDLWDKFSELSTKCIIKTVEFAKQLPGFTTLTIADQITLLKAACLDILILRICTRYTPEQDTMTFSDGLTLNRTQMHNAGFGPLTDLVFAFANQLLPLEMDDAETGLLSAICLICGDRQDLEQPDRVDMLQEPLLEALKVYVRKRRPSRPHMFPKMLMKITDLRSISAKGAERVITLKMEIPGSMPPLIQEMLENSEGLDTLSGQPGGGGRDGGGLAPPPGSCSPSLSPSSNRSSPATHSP", "test": "RAR binding, competition with tritiated retinoid", "settings": "read-out: RAR Binding alpha", "text": "(§1) In addition to the cotransfection data, the binding of selected compounds of the present invention to the RAR and RXR receptors was also investigated according to the methodology described in M. F., Boehm, et al., “Synthesis and Structure-Activity Relation-ships of Novel Retinoid X Receptor Selective Retinoids”, 37 J. Med. Chem., 2930 (1994); M. F. Boehm, et al., “Synthesis of High Specific Activity [^3H]-9-cis Retinoic Acid and Its Application for Identifying Retinoids with Unusual Binding Properties”, 37 J. Med. Chem., 408 (1994), and E. A. Allegretto, et al., “Characterization and Comparison of Hormone-Binding and Transactivation Properties of Retinoic Acid and Retinoid X Receptors Expressed in Mammalian Cells and Yeast”, 268 J. Biol. Chem., 22625 (1993), the disclosures of which are herein incorporated by reference.\n(§2) Non-specific binding was defined as that binding remaining in the presence of 500 nM of the appropriate unlabelled compound. At the end of the incubation period, bound ligand was separated from free. The amount of bound tritiated retinoid was determined by liquid scintillation counting of an aliquot (700 μL) of the supernatant fluid or the hydroxylapatite pellet.\n(§3) After correcting for non-specific binding, IC50 values were determined. The IC50 value is defined as the concentration of competing ligand needed to reduce specific binding by 50%. The IC50 value was determined graphically from a log-logit plot of the data. The Ki values were determined by application of the Cheng-Prussof equation to the IC50 values, the labeled ligand concentration and the Kd of the labeled ligand."}, "RARβ": {"target": "T2, RARβ (Homo sapiens, UniProt P10826)", "T2 sequence (P10826 1-455)": "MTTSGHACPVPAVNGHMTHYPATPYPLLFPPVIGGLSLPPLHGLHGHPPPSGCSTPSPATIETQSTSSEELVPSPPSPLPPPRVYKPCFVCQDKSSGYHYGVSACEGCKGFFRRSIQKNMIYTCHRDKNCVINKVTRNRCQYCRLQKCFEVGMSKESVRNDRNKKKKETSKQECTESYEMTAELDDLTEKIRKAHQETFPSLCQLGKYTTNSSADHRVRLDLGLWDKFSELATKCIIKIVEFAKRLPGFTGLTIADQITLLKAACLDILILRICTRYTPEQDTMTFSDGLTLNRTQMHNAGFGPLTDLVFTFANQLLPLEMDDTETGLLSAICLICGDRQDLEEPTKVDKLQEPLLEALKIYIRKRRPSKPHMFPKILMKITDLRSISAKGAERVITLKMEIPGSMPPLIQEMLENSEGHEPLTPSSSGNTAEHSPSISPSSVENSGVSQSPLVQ", "test": "RAR binding, competition with tritiated retinoid", "settings": "read-out: RAR Binding beta", "text": "as §1, §2, §3"}, "RARγ": {"target": "T3, RARγ (Homo sapiens, UniProt P13631)", "T3 sequence (P13631 1-454)": "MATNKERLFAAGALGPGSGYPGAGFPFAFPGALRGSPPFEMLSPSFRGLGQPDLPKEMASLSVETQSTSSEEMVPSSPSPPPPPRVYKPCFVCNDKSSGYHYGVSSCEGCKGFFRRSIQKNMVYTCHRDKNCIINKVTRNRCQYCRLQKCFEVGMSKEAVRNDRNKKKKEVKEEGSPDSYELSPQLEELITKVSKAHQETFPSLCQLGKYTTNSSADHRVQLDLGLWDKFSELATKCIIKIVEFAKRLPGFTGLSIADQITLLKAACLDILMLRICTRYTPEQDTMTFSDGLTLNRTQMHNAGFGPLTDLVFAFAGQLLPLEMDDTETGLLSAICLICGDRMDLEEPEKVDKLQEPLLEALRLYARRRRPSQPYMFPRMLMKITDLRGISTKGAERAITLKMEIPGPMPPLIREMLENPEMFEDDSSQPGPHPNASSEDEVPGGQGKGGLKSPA", "test": "RAR binding, competition with tritiated retinoid", "settings": "read-out: RAR Binding gamma", "text": "as §1, §2, §3"}, "RXRγ": {"target": "T4, RXRγ (UniProt P28705)", "T4 sequence (P28705 1-463)": "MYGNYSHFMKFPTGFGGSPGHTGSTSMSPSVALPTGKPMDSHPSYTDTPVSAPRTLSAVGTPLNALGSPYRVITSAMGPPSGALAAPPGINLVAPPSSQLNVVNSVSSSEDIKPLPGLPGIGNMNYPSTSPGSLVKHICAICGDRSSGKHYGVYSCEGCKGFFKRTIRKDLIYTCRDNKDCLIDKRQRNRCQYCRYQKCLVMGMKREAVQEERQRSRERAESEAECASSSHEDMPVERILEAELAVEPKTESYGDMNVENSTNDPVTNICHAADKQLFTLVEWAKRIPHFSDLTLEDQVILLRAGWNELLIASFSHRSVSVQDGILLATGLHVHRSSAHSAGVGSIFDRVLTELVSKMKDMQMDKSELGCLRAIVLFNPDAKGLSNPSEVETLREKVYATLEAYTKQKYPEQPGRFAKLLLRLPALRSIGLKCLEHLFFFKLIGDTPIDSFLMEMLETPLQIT", "test": "RXR binding, competition with tritiated retinoid", "settings": "read-out: RXR Binding gamma", "text": "as §1, §2, §3"}},
  "data": [
    {"smiles": "CCCCOc1c(\\C(C)=C/C=C/C(=C/C(=O)O)C(F)(F)F)cc(C(C)C)cc1C(C)C", "note": "[Example 3, (2Z,4E,6Z)-7-(2-Butoxy-3,5-diisopropylphenyl)-3-trifluoromethyl-octa-2,4,6-trienoic acid]", "values": [
      {"measurement": "Ki", "setting": "RARα", "value": "> 10000", "unit": "nM"},
      {"measurement": "Ki", "setting": "RARβ", "value": "> 10000", "unit": "nM"},
      {"measurement": "Ki", "setting": "RARγ", "value": "> 10000", "unit": "nM"},
      {"measurement": "Ki", "setting": "RXRγ", "value": 662, "unit": "nM"}
    ]},
    {"smiles": "C/C(=C/C=C(F)/C(C)=C/C(=O)O)c1cc(C(C)(C)C)cc(C(C)(C)C)c1OCC(F)F", "note": "[Example 1, 7-[3,5-di-tert-butyl-2-(2,2-difluoroethoxy)-phenyl]4-fluoro-3-methyl-octa-2,4,6-trienoic acid]", "values": [
      {"measurement": "Ki", "setting": "RARα", "value": 1150, "unit": "nM"},
      {"measurement": "Ki", "setting": "RARβ", "value": 6630, "unit": "nM"},
      {"measurement": "Ki", "setting": "RXRγ", "value": 21, "unit": "nM"}
    ]},
    {"smiles": "CCOc1c(\\C(=C/C=C/C(C)=C/C(=O)O)C(F)(F)F)cc(C(C)(C)C)cc1C(C)(C)C", "note": "[Example 5, (2E,4E,6E)-3-methyl-7-(2-ethoxy-3,5-di-tert-butylphenyl)-8,8,8-trifluoroocta-2,4,6-trienoic acid]", "values": [
      {"measurement": "Ki", "setting": "RARα", "value": "> 10000", "unit": "nM"},
      {"measurement": "Ki", "setting": "RARβ", "value": 7250, "unit": "nM"},
      {"measurement": "Ki", "setting": "RARγ", "value": "> 10000", "unit": "nM"},
      {"measurement": "Ki", "setting": "RXRγ", "value": 184, "unit": "nM"}
    ]},
    {"smiles": "C/C(=C/C(F)=C/C(C)=C/C(=O)O)c1cc(C(C)(C)C)cc(C(C)(C)C)c1OCC(F)F", "note": "[Example 2, 7-[3,5-Di-tert-butyl-2-(2,2-difluoroethoxy)-phenyl]-5-fluoro-3-methyl-octa-2,4,6-trienoic acid]", "values": [
      {"measurement": "Ki", "setting": "RARα", "value": "> 10000", "unit": "nM"},
      {"measurement": "Ki", "setting": "RARβ", "value": 2750, "unit": "nM"},
      {"measurement": "Ki", "setting": "RXRγ", "value": 29, "unit": "nM"}
    ]},
    {"smiles": "CCCCOc1c(\\C(C)=C/C=C/C(=C\\C(=O)O)C(F)(F)F)cc(C(C)C)cc1C(C)C", "note": "[Example 4, (2E,4E,6Z)-7-(2-Butoxy-3,5-diisopropylphenyl)-3-trifluoromethyl-octa-2,4,6-trienoic acid]", "values": [
      {"measurement": "Ki", "setting": "RARα", "value": "> 10000", "unit": "nM"},
      {"measurement": "Ki", "setting": "RARβ", "value": "> 10000", "unit": "nM"},
      {"measurement": "Ki", "setting": "RARγ", "value": "> 10000", "unit": "nM"},
      {"measurement": "Ki", "setting": "RXRγ", "value": 865, "unit": "nM"}
    ]}
  ]
}
